Laboratory results as given in patent US9393288B2, “Methods of treating diseases associated with PPARγ” (The University of Vermont and State Agricultural College, priority 2012, dated 2016).

Key:
[1] = system: parenchymal arterioles (PA); experiment: Pressurized arteriograph: vascular reactivity and structure of PA from relaxin-treated NP Sprague Dawley rats; assay type: in vivo, rat; details: GW9662 10 mg/kg daily in food during relaxin infusion, 5 mmHg
Excerpt: (§1) Animals and Treatment Groups: All procedures were approved by the Institutional Animal Care and Use Committee and conducted in accordance with the National Institutes of Health Guide for the Care and Use of Laboratory Animals. Female virgin NP Sprague Dawley rats (250-300 g, 14-16 weeks, Charles River, Canada) were used for all experiments and housed in the University of Vermont Animal Care Facility. Animals were randomly selected and grouped as untreated (N=4), treated with recombinant human relaxin-2 (relaxin, 4 μg/hr; N=14), relaxin plus a specific PPARγ inhibitor GW9662 (10 mg/kg daily in food; N=8), or vehicle (20 mM sodium acetate; N=14) for 10 days through osmotic minipumps (Alzet 2ML2, Durect Corp., Cupertino, Calif., USA). GW9662 treatment was started 1 day before and for the duration of relaxin treatment to ensure PPARγ was inhibited. Animals were anesthetized with 3% isoflurane and minipumps implanted subcutaneously in the back of the neck. All animals received post-surgical analgesic (buprenorphine, 50 μg/kg, s.c.). Relaxin infusion was continuous for 10 days until animals were euthanized for vessel experiments and tissue collection. The minipumps used were capable of delivering relaxin for 14 days and thus tissue collection was within this duration.
Vessel Preparation and Pressurized Arteriograph System: After collecting trunk blood, the brain was quickly removed and placed in cold physiological salt solution (PSS). In the first set of experiments, PA between the M1 and M2 region of the MCA territory and the MCA from the same animals were carefully isolated from vehicle- or relaxin-treated animals and mounted on glass cannulas in a dual-chambered arteriograph such that one PA and one MCA from each animal were studied simultaneously. PA were identified as branches off the MCA that penetrated into the brain tissue, as previously described (25). In the second set of experiments, PA from the same brain region as above were dissected from relaxin+GW9662-treated animal and compared to PA from vehicle- and relaxin-treated animals. MCA were not studied in this second set of animals because there was no effect of relaxin on that segment of the vasculature. The proximal cannulas were connected to an in-line pressure transducer and a servo-null pressure control system (Living Systems Instrumentation, Burlington, Vt., USA) that allowed intravascular pressure to be maintained at a set pressure or changed at a variable rate. The distal cannulas were closed during the experiment to avoid flow-mediated responses. Temperature and pH were continuously measured and maintained at 37.0±0.5° C. and 7.40±0.05, respectively. Measurements of inner diameter (ID) and wall thickness (WT) were made via video microscopy (Living Systems Instrumentation).
Vascular Reactivity and Structural Characteristics in PA and MCA: For the first set of experiments, PA and MCA were equilibrated for 1 hour at 25 mmHg, after which myogenic activity was determined by stepwise increases in pressure from 40 to 100 mmHg for PA or 50 to 175 mmHg for MCA. ID and WT were measured at each pressure once stable. Changes in ID and WT were measured in PA only in response to small- (SKCa) and intermediate- (IKCa) conductance calcium-activated potassium channels blockers, apamin (3×10^−7 M) and TRAM-34 (10^−6 M), respectively. PA are unique in that the contribution of endothelium-derived hyperpolarizing factors (EDHF) to tone is greater than most vessels Cipolla et al. (2009) Stroke 40, 1451-1457. Thus, inhibition of SKCa/IKCa channels, a critical component in the EDHF pathway, causes constriction in PA Cipolla et al. (2009) Stroke 40, 1451-1457. We therefore assessed the effect of relaxin on constriction of PA in response to SKCa/IKCa channel inhibition in order to assess this unique pathway. […]

[2] = system: PPARγ target genes; experiment: PPARγ target gene expression (real-time qPCR) in adipose tissue, pial arteries and PA, NP Sprague Dawley rats; assay type: in vivo, rat; details: GW9662 co-treatment
Excerpt: as §1
Determination of RXFP1 and PPARγ Target Gene Expression: MCA and PA from 4 untreated rats were collected to determine expression level of RXFP1, the primary relaxin receptor, using real-time qPCR methods. We also collected adipose tissue, pial arteries, and PA from vehicle, relaxin and relaxin+GW9662 groups (n=6 for each group) for determination of PPARγ target gene expression. All collected samples were stored in RNase inhibitor (1 unit/μl, RiboLock, Fermentas, Glen Burnie, Md., USA) at −80° C. for comparing expression of fatty acid translocase (FAT)/CD36 and liver X receptors-α (LXRα) for adipose tissue, and plasminogen activator inhibitor-1 (PAI-1) for vasculature. Standard techniques for real-time qPCR were performed by the Vermont Cancer Center DNA analysis facility at the University of Vermont, as described previously Cipolla et al. (2009) Stroke 40, 1451-1457. Briefly, RNA was extracted from tissues and concentration and integrity was determined by a NanoDrop ND-1000 Spectrophotometer (Wilmington, Del.) and an Agilent 2100 Bioanalyzer (Santa Clara, Calif., USA), respectively. Samples with low RNA quality were excluded. cDNA was then made by a SuperScript III Kit (Invitrogen, Carlsbad, Calif., USA). Real-time qPCR was set up as follows: 10 μL Universal PCR Master Mix (Applied Biosystems, Foster City, Calif., USA), 1 μL Assay on Demand (Applied Biosystems), 8 μL water, and 1 μL cDNA. β2-microglobulin (B2M, housekeeping control) and target genes were assessed using Assays on Demand from Applied Biosystems. […] Primers were designed across an exon-exon junction to avoid detecting genomic DNA. Thus, no DNase treatment of samples was necessary. All samples were run in duplicates using a 7900HT Sequence Detection System (Applied Biosystems). […]
Data Calculations and Statistical Analysis: Percent tone was calculated as percent decrease in ID from the passive diameter at each intravascular pressure: [1−(IDactive/IDpassive)]×100%. Outer diameter (OD) was calculated from measured ID and WT: ID+2WT. Cross-sectional area (CSA) of the wall was calculated as: [(OD/2)2−(ID/2)2]×π. Data from qPCR study were analyzed using the −2^ΔΔCT method, as described previously Livak et al. (2001) Methods 25, 402-408. […]

[3] = system: parenchymal arterioles (PA); experiment: SKCa/IKCa channel blockers added to isolated pressurized PA; set-up: species or system rat; details: apamin 3×10^−7 M, TRAM-34 10^−6 M in the bath
Procedure: Vascular Reactivity and Structural Characteristics in PA and MCA: For the first set of experiments, PA and MCA were equilibrated for 1 hour at 25 mmHg, after which myogenic activity was determined by stepwise increases in pressure from 40 to 100 mmHg for PA or 50 to 175 mmHg for MCA. ID and WT were measured at each pressure once stable. Changes in ID and WT were measured in PA only in response to small- (SKCa) and intermediate- (IKCa) conductance calcium-activated potassium channels blockers, apamin (3×10^−7 M) and TRAM-34 (10^−6 M), respectively. PA are unique in that the contribution of endothelium-derived hyperpolarizing factors (EDHF) to tone is greater than most vessels Cipolla et al. (2009) Stroke 40, 1451-1457. Thus, inhibition of SKCa/IKCa channels, a critical component in the EDHF pathway, causes constriction in PA Cipolla et al. (2009) Stroke 40, 1451-1457. We therefore assessed the effect of relaxin on constriction of PA in response to SKCa/IKCa channel inhibition in order to assess this unique pathway. To obtain structural measurements, ID and WT were recorded at pressures between 5 to 200 mmHg for PA or 5 to 175 mmHg for MCA after papaverine (10^−4 M) and diltiazem (10^−5 M) were added to the bath. For the second set of experiments in which animals were treated with relaxin+GW9662, passive structural measurements were made as described above.

[4] = system: parenchymal arterioles (PA); experiment: Pressurized arteriograph: vascular reactivity and structure of PA from female SHR; assay type: in vivo, rat; details: SHR-F-Rln-Axi vs SHR-F-Rln
Procedure: A separate group of SHR-F was used to determine if relaxin crosses the BBB by treating with relaxin (4 μg/hr) for 14 days and measuring relaxin concentration in cerebrospinal fluid (CSF) and serum (SHR-F-Rln-CSF, n=4). For the osmotic pump implant, animals were anesthetized with 3% isoflurane and minipumps implanted subcutaneously in the back of the neck. All animals received post-surgical analgesia (buprenorphine, 50 μg/kg, s.c.). Relaxin infusion was continuous for 14 days until animals were euthanized for isolated vessel experiments and tissue collection.
After collecting trunk blood, the brain was quickly removed and placed in cold physiological salt solution (PSS). PA between the M1 and M2 region of the MCA territory and the MCA from the same animals were carefully isolated from WKY-F, SHR-F, and SHR-F-Rln groups and mounted on glass cannulas. PA were identified as branches off the MCA that penetrated into the brain tissue, as previously described (han, S. L., and Cipolla, M. J. (2011) Relaxin causes selective outward remodeling of brain parenchymal arterioles via activation of peroxisome proliferator-activated receptor-gamma. FASEB J 25, 3229-3239). […] The proximal cannula was connected to an in-line pressure transducer and a servo-null pressure control system (Living Systems Instrumentation, Burlington, Vt., USA) that allowed intravascular pressure to be maintained at a set pressure or changed at a variable rate. The distal cannula was closed during the experiment to avoid flow-mediated responses. Temperature and pH were continuously measured and maintained at 37.0±0.5° C. and 7.40±0.05, respectively. Measurements of inner diameter (ID) and wall thickness (WT) were made via video microscopy (Living Systems Instrumentation, Burlington, Vt.).
PA and MCA were equilibrated for 1 hour, after which myogenic activity was determined by stepwise increases in pressure from 40 to 100 mmHg for PA or 50 to 175 mmHg for MCA. ID and WT were measured at each pressure once stable. Endothelium-dependent dilation was studied by adding NS309 (10^−8-10^−5 M), an activator of small- and intermediate-conductance calcium-activated potassium channels (SKCa, IKCa). NS309 was washed out of the bath and a single concentration of the nitric oxide synthase (NOS) inhibitor L-nitro-n-arginine (L-NNA, 10^−4 M) added to the bath. Constriction to NOS inhibition was used as an additional indicator of endothelial function. In the presence of L-NNA, sodium nitroprusside (SNP, 10^−8-10^−5 M) was added to the bath to assess endothelium-independent vasodilation. To obtain structural measurements, ID and WT were recorded at pressures between 5 to 200 mmHg for PA or 5 to 175 mmHg for MCA in zero-calcium PSS containing ethylene glycol tetra-acetic acid (EGTA) and outer diameter (OD) and distensibility calculated.
Percent tone was calculated as percent decrease in ID from the passive diameter at each intravascular pressure: [1−(IDactive/IDpassive)]×100. Percent reactivity for vasodilators was calculated as ((IDdose−IDstart)/(IDpassive−IDstart))×100. Percent constriction for vasoconstrictor was calculated as (1−(IDdose/IDstart))×100. OD was calculated from measured ID and WT: ID+2WT. Distensibility at a given pressure was calculated as (IDpassive−IDoriginal)/(IDoriginal)×100, where IDoriginal is defined as passive inner diameter determined at lowest pressure (5 mmHg). Data from qPCR study were analyzed using the −2^ΔΔCT method, as described previously (Livak, K. J., and Schmittgen, T. D. (2001) Analysis of relative gene expression data using real-time quantitative PCR and the 2(−Delta Delta C(T)) Method. Methods 25, 402-408). Data were removed when the Ct values of technical replicates differed by more than 0.5.

SMILES: O=C(Nc1ccccc1)c1cc([N+](=O)[O-])ccc1Cl [GW9662, reference compound]
- Structural changes of PA induced by relaxin [1]: prevented
- Relaxin-induced change of CD36 gene expression in adipose tissue [2]: normalized

SMILES: Clc1ccccc1C(c1ccccc1)(c1ccccc1)n1cccn1 [TRAM-34]
- Vasoconstriction of PA [3]: greater vasoconstriction

SMILES: CNC(=O)c1ccccc1Sc1ccc2c(/C=C/c3ccccn3)n[nH]c2c1 [axitinib, reference compound]
- Relaxin-induced increased distensibility of PA [4]: no effect
